In PubChem BioAssay AID179 (DTP/NCI, 2004):
Calls of active or inactive are those of the source.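 The calls were made as follows: active = compounds giving half or more protection of infected cells from virus-caused growth loss, again on retest; inactive = the rest.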

Test system: CEM cells HIV-1 protection, formazan growth assay
Assay: NCI AIDS Antiviral Assay
Settings: for IC50: measured here: growth of uninfected CEM cells
Outline: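 Human CEM cells, uninfected and HIV-1-infected, received five drug concentrations, and growth was read by soluble formazan assay. Compounds giving at least 50% protection were retested; reproducible 100% protection defined confirmed active.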

Cc1cnc2nc(N)nc(N)c2n1
EC50: > 200 µM
IC50: > 200 µM

CCCCc1ccc(Nc2ncc3[nH]cnc3n2)cc1
EC50: > 200 µM
IC50: 29.5 µM

Nc1ccc2c3c(ccc([N+](=O)[O-])c13)CC2
EC50: > 200 µM
IC50: 102 µM

CC1CC(=O)C(C(O)CC2CC(=O)N(c3ccccc3)C(=O)C2)C(C)C1 (stereo not given)
EC50: > 200 µM
IC50: > 200 µM

O=C1Nc2n[nH]c(=S)n2NC12c1ccccc1-c1ccccc12
EC50: > 200 µM
IC50: > 100 µM

Cc1cc(C)c(C(=O)c2no[n+]([O-])c2C(=O)c2c(C)cc(C)c(Br)c2C)c(C)c1Br
EC50: > 1.95 µM
IC50: > 1.95 µM

OC(C/C(=N\N=C(/CC(O)(C(F)(F)F)C(F)(F)F)c1ccccc1)c1ccccc1)(C(F)(F)F)C(F)(F)F
EC50: > 200 µM
IC50: > 200 µM

O=C(/C=C/c1ccc(O)c(O)c1)OCCc1cccc2ccccc12
EC50: > 200 µM
IC50: 2.75 µM

Brc1ccc(OCc2ccccc2)c2ccccc12
EC50: > 200 µM
IC50: 63.1 µM

CCCCCCCNC(=S)N/N=C/c1ccccc1O
EC50: > 200 µM
IC50: 10.5 µM

C=C1CCOC2(C(O)C(C)(O)CO)NC(=O)C1(O)NC2=O (stereo not given)
outcome: inactive

OC1C2[C@@H](O)CCN2CC[C@H]1O (stereo not given in full)
EC50: > 759 µM
IC50: > 759 µM

COc1ccc2c(c1)NC1(O)c3ccccc3C(=O)C21O (stereo not given)
EC50: > 331 µM
IC50: > 331 µM

O=C(O)c1nc2cc(C(F)(F)F)ccc2nc1Nc1ccc(Cl)c(Cl)c1
EC50: > 200 µM
IC50: 10 µM

COc1ccc(S(=O)(=O)O)cc1-n1nc(C(=O)Nc2ccccc2)n[n+]1-c1cc(S(=O)(=O)[O-])ccc1OC
EC50: > 200 µM
IC50: > 200 µM

O=C(c1ccccc1)N1OC2C=CC1CC2 (stereo not given)
EC50: > 1150 µM
IC50: > 1150 µM

O=C(Nc1ccccc1)c1cc2cc(O)c(O)cc2cn1
EC50: > 158 µM
IC50: 7.41 µM

COC1=CC2(OC)CCC1C1=C2C(=O)c2c(O)cccc2C1=O (stereo not given)
outcome: inactive

Cc1ccc(S(=O)(=O)SCCCSS(=O)(=O)c2ccc(C)cc2)cc1
EC50: > 89.1 µM
IC50: 15.5 µM

Cc1cc(N=Nc2c(C)ccc3ncccc23)ccc1N
EC50: > 200 µM
IC50: 0.603 µM

CC(=O)N/N=C(\C=C\c1ccccc1)c1ccccc1OC(C)=O
EC50: > 200 µM
IC50: 107 µM

CCOC(=O)C(Cl)(Cl)/S(=N\S(=O)(=O)c1ccccc1)NC(=O)c1ccccc1 (stereo not given)
EC50: > 200 µM
IC50: > 200 µM

CS(=O)(=O)c1nc(Cl)c(Cl)c(C#N)c1Cl
EC50: > 200 µM
IC50: 0.457 µM

CCC1(CC)COP(=S)(S)OC1
EC50: > 200 µM
IC50: > 200 µM

Cc1cccc(C)c1NC(=O)CCc1nnc2s/c(=C\c3ccc(Cl)cc3)c(=O)n12
EC50: > 1.7 µM
IC50: > 1.7 µM

Cc1ccc(NC(=O)/C(=N/N(C)C)C(C2OC(=O)c3ccccc32)[N+](=O)[O-])cc1 (stereo not given)
EC50: > 47.9 µM
IC50: > 47.9 µM

CC(C)CCC[C@@H](C)C1CCC2[C@@H]3CC=C4C[C@@H](C(=O)NCC[N+](C)(C)CCCS(=O)(=O)[O-])CC[C@]4(C)C3CC[C@@]21C (stereo not given in full)
outcome: inactive

CC(=O)[O-].CC(=O)[O-].O=C(N/N=C/c1cc(Cl)cc(Cl)c1O)c1ccncc1.[Cu+2]
outcome: inactive

CC1(C)C(=C(C#N)C#N)C(C)(C)C1=C(C#N)C#N
EC50: > 100 µM
IC50: > 100 µM

COC(=O)C1=C(C)C(=O)[C@H]2C(C(=O)OC)CCCC[C@@H]12 (stereo not given in full)
EC50: > 200 µM
IC50: 129 µM

Cc1cccc([P+](Cc2ccccc2)(c2cccc(C)c2)c2cccc(C)c2)c1
EC50: > 200 µM
IC50: 0.589 µM

C[C@]12CCC(OS(=O)(=O)O)CC1=CCC1C2CC[C@@]2(C)C1CC[C@@H]2C(=O)O (stereo not given in full)
EC50: > 427 µM
IC50: 417 µM

O=C1OCCOCCSCCOCCOC(=O)c2cccc1n2
EC50: > 537 µM
IC50: 37.2 µM

C=C1C(O)O[C@@H]2O[C@@]3(C)CC[C@H]4[C@H](C)CC[C@@H]1[C@@]24OO3 (stereo not given in full)
EC50: > 200 µM
IC50: 8.71 µM

Cc1c(C#N)c(N)n(C2OC(CO)C(O)C(O)C2O)c(=S)c1C#N (stereo not given)
EC50: > 200 µM
IC50: > 200 µM

CCOP(=O)(OCC)C(C)(C)OC(=O)NC(F)(F)F
EC50: > 200 µM
IC50: > 200 µM

CCn1c(CSc2nc(-c3ccccc3)c(-c3ccccc3)[nH]2)n[nH]c1=S
EC50: > 91.2 µM
IC50: 52.5 µM

CC(=O)Nc1ccc(C(=O)NN2C(=O)C(Cl)C2/C=C/c2ccccc2)cc1 (stereo not given)
EC50: 135 µM
IC50: 166 µM

CC1(C)C2(C(N)=O)C(=O)NC(=O)C12C(=O)O (stereo not given)
EC50: > 200 µM
IC50: > 200 µM

Cc1cc(C)c(-c2c(O)c(O)c(-c3ccccc3)c3ccccc23)c(C)c1
EC50: > 200 µM
IC50: 7.76 µM

c1ccc2[nH]c(SSc3nc4ccccc4[nH]3)nc2c1
EC50: > 107 µM
IC50: 89.1 µM

NC(N)=N/N=C(/CC1OC(=O)c2ccccc21)c1ccc2ccccc2c1 (stereo not given)
EC50: > 28.2 µM
IC50: > 28.2 µM

FC(F)(F)c1cccnc1Sc1nc2ccccc2s1
EC50: > 200 µM
IC50: 38 µM

N[C@H](CCC(=O)NCP(=O)(O)O)C(=O)O
EC50: > 200 µM
IC50: > 200 µM

O=C1C(NS(=O)(=O)c2ccccc2)=C(N(Cc2ccccc2)Cc2ccccc2)C(=O)c2ccccc21
EC50: > 200 µM
IC50: 72.4 µM

O=c1[nH]c(=O)n(C2C=CC(CO)O2)cc1C(OCC(F)(F)F)OCC(F)(F)F (stereo not given)
EC50: > 141 µM
IC50: 72.4 µM

O=C(CC(=O)N1N=C(c2ccccc2)C(N=Nc2ccccc2[N+](=O)[O-])C1=O)Nc1ccccc1F (stereo not given)
EC50: > 27.5 µM
IC50: > 27.5 µM

CC(=O)NC1C(OCC(=O)NC(C)C(=O)NC(CCC(=O)NCCCCCNc2ccc([N+](=O)[O-])c3[nH]c4ccccc4c(=O)c23)C(N)=O)C(O)C(CO)OC1(C)OCc1ccccc1 (stereo not given)
EC50: > 100 µM
IC50: 3.39 µM

N#C/C(=C1\SC(N=Nc2ccccc2)C(=O)N1c1ccccc1)c1nc2ccccc2[nH]1 (stereo not given)
EC50: > 6.03 µM
IC50: > 6.03 µM

CC(Nc1cc(Cl)cc(Cl)c1)c1ccncc1 (stereo not given)
EC50: > 200 µM
IC50: 15.8 µM

COc1ccccc1OC(=O)/C=C/c1ccccc1
EC50: > 200 µM
IC50: 3.72 µM

CN(C(=O)C12C3C4(C(=O)O)C1(C(=O)N(C)C(C)(C)C)C1C2(C(=O)O)C3(C(=O)N(C)C(C)(C)C)C14C(=O)N(C)C(C)(C)C)C(C)(C)C (stereo not given)
EC50: > 151 µM
IC50: > 151 µM

CC1(O)OC(=O)c2ccc3ccccc3c21 (stereo not given)
EC50: > 398 µM
IC50: > 398 µM

Cc1nc2c(nc1C)C(=O)C(Br)=CC2=O
outcome: inactive

COC(=O)c1ccccc1/C=C1\Cc2cc(C)c(C)cc2C1=O
EC50: > 100 µM
IC50: > 100 µM

CS(=O)(=O)OCCN(CCOS(C)(=O)=O)c1ccc(C=Nc2ccc(-c3csc(COc4ccccc4)n3)cc2)cc1
EC50: > 200 µM
IC50: 0.457 µM

COC1(OC)N=C(N)C2(C#N)C(C)CC(=O)N(N(C)C)C12C#N (stereo not given)
EC50: > 200 µM
IC50: > 200 µM

CCOc1ccccc1NC(=O)C1=C(C)NC(C)=C(C(=O)Nc2ccccc2OCC)C1c1ccc2c(c1)OCO2
EC50: > 12.9 µM
IC50: > 12.9 µM

CCn1c2ccccc2n2c(=O)c3c(c(C#N)c12)CCCC3
EC50: > 200 µM
IC50: > 200 µM

COCCOC(C)C(=O)C(O)S(=O)(=O)O (stereo not given)
EC50: > 200 µM
IC50: 186 µM

N#C/C(=C\c1cc(O)c(O)c(I)c1)C(=O)NCCCc1ccccc1
EC50: > 200 µM
IC50: 9.55 µM

O/N=C1\CC2(N3CCOCC3)CCC1(c1ccccc1)CC2
outcome: inactive

Clc1ccc(-c2onc3ccc(Br)cc23)cc1
EC50: > 162 µM
IC50: > 162 µM
